Experimental data as given in patent publication EP4786487A1, “PEPTIDE” (Peptidream Inc, priority 2023, dated 2025).
Like-named read-outs stand apart in the source and are kept apart here. Starred links: 1 amine or outer side, 2 acyl side, 3 side chain; linkers in the order of their positions; H or OH if unused. Positions of bridges follow the written chain, without caps; N, C: chain ends. Non-standard residues stand in square brackets, D forms with d. Residues, ends and D or L forms follow the SMILES beside them. *: point of attachment. X3 = O=C(O)COc1ccccc1-c1ccc(C[C@H](N[*:1])C(=O)[*:2])cc1; X10 = O=C([C@H](Cc1cn(Cc2ccccc2)c2ccccc12)N[*:1])[*:2]; Phe(3-OCH2COOH) = N[C@@H](Cc1cccc(OCC(=O)O)c1)C(=O)O; Trp(6-OH) = N[C@@H](Cc1c[nH]c2cc(O)ccc12)C(=O)O; Phe(4-CONH2) = NC(=O)c1ccc(C[C@H](N)C(=O)O)cc1; Phe(4-COOH) = N[C@@H](Cc1ccc(C(=O)O)cc1)C(=O)O; Trp(7-aza) = N[C@@H](Cc1c[nH]c2ncccc12)C(=O)O; Piperazinyl(4-CH2COOH) = O=C(O)CN1CCN(*)CC1; Bip = N[C@@H](Cc1ccc(-c2ccccc2)cc1)C(=O)O; 3Pal(6-NH2) = Nc1ccc(C[C@H](N)C(=O)O)cn1; Gly(N(CH2)3COOH) = O=C(O)CCCNCC(=O)O; X1 = CCCCCCC[C@H](N[*:1])C(=O)[*:2]; Gly(N-(CH2)3OMe) = COCCCNCC(=O)O; NMeF = CN[C@@H](Cc1ccccc1)C(=O)O; 4Pal = N[C@@H](Cc1ccncc1)C(=O)O; NMeA = CN[C@@H](C)C(=O)O; Inp = O=C(O)C1CCNCC1; Sar = CNCC(=O)O

Experiments:
Myostatin = molecular target: T1, Myostatin (Homo sapiens, UniProt O14793); experiment: HepG2 reporter gene assay, Evaluation Procedure (2): 2-concentrations assay, myostatin inhibition; type: cell-based
T1 construct: active myostatin (also called mature myostatin) is a homodimer consisting of two C-terminal growth factor domains; purchased R&D systems 788-G8/CF
T1 sequence (O14793 267-375): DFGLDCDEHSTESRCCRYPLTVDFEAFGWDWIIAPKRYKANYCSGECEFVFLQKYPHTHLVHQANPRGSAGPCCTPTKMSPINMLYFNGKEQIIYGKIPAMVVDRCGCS
Outline: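 Myostatin inhibition was measured in a luciferase reporter assay using HepG2 cells transfected with a pGL3 vector containing 12 CAGA repeats upstream of luciferase. After 20 to 24 hours with 10 ng/mL myostatin, cells received One-Glo:PBS (1:1) at 100 µL/well, were shaken for 5 min, and 20 µL/well was moved to 384-well plates and read on an Envision 2104.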

GDF-11 = molecular target: T2, GDF-11 (Homo sapiens, UniProt O95390); experiment: HepG2 reporter gene assay, Evaluation Procedure (2): 2-concentrations assay, GDF-11 inhibition; type: cell-based; conditions: for inhibition at 0.03 µM: HepG2, peptide 30nM, read-out: GDF11 Inhibition 30nM; for inhibition at 0.03 µM / inhibition at 0.1 µM: GDF-11 10 ng/mL; for inhibition at 0.1 µM: HepG2, peptide 100nM, read-out: GDF11 Inhibition 100nM
T2 construct: purchased R&D systems 1958-GD-G8/CF
T2 sequence (O95390 299-407): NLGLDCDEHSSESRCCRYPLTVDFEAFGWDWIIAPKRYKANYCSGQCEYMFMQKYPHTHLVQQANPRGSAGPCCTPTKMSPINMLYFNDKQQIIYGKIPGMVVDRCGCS
Outline: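 HepG2 cells carrying the transfected pGL3(CAGA)12-luc reporter, a pGL3 vector with luciferase placed downstream of 12 CAGA repeats, were stimulated with GDF-11 at a final 10 ng/mL together with test peptide. Blank wells received no GDF-11 and no peptide. Plates were incubated 20 to 24 hours at 37°C with 5% CO2. Luminescence from One-Glo substrate was read to calculate percent inhibition.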

[1] = HepG2, read-out: inhibition rate (myostatin inhibition assay)
[2] = peptide 30nM, Myostatin 10 ng/mL, HepG2, read-out: Myostatin Inhibition 30nM
[3] = peptide 100nM, Myostatin 10 ng/mL, HepG2, read-out: Myostatin Inhibition 100nM
[4] = Table 7-3/7-4, myostatin 10 ng/mL, peptide at the higher of the 2 concentrations, HepG2, read-out: inhibition rate (myostatin inhibition assay)
[5] = Table 7-3/7-4, myostatin 10 ng/mL, peptide at the lower of the 2 concentrations, HepG2, read-out: inhibition rate (myostatin inhibition assay)
[6] = HepG2, first GDF-11 column of Table 7-3/7-4, GDF-11 10 ng/mL, peptide at the lower of the 2 concentrations, read-out: inhibition rate (GDF-11 inhibition assay)
[7] = HepG2, second GDF-11 column of Table 7-3/7-4, GDF-11 10 ng/mL, peptide at the higher of the 2 concentrations, read-out: inhibition rate (GDF-11 inhibition assay)

| SMILES | inhibition at 0.03 µM (Myostatin; [2]) | inhibition at 0.1 µM (Myostatin; [3]) | inhibition at 0.03 µM (GDF-11) | inhibition at 0.1 µM (GDF-11) | inhibition at 0.1 µM (Myostatin; [4]) | inhibition at 0.03 µM (Myostatin; [5]) | inhibition (GDF-11; [6]) | inhibition (GDF-11; [7]) | further results |
| --- | --- | --- | --- | --- | --- | --- | --- | --- | --- |
| CCCCCCC[C@@H]1NC(=O)[C@H](Cc2ccccc2)N(C)C(=O)[C@H](CCCNC(=N)N)NC(=O)[C@H](Cc2ccc(C(=O)O)cc2)NC(=O)[C@H](Cc2ccc(-c3ccccc3OCC(=O)O)cc2)NC(=O)[C@H](C)N(C)C(=O)[C@H]([C@@H](C)CC)NC(=O)[C@H](Cc2ccccc2)N(C)C(=O)[C@H](Cc2ccc(O)cc2)NC(=O)[C@H](Cc2c[nH]c3cc(O)ccc23)NC(=O)[C@H](C)NC(=O)CN(CCCC(=O)O)C(=O)CSC[C@H](C(=O)O)NC(=O)[C@H](Cc2ccccc2)N(C)C(=O)[C@H](C)N(C)C1=O [Myostatin_99_v373] ({CH2CO}-[Gly(N(CH2)3COOH)]A[Trp(6-OH)]Y[NMeF]I[NMeA][X3][Phe(4-COOH)]R[NMeF][X1][NMeA][NMeF][dC]-OH; thioether N-15) |  |  |  |  |  |  |  |  | inhibition at 0.03 µM (Myostatin; [1]): 100%; inhibition at 0.1 µM (Myostatin; [1]): 100%; inhibition (GDF-11; HepG2, read-out: inhibition rate (GDF-11 inhibition assay), Table 7-3/7-4, GDF-11 10 ng/mL, peptide at the higher of the 2 concentrations): 47%; inhibition (GDF-11; HepG2, read-out: inhibition rate (GDF-11 inhibition assay), Table 7-3/7-4, GDF-11 10 ng/mL, peptide at the lower of the 2 concentrations): 0% |
| CCCCCCC[C@@H]1NC(=O)[C@H](Cc2ccccc2)N(C)C(=O)[C@H](CCCNC(=N)N)NC(=O)[C@H](Cc2ccc(C(=O)O)cc2)NC(=O)[C@H](Cc2ccncc2)NC(=O)CN(C)C(=O)[C@H]([C@@H](C)CC)NC(=O)[C@H](Cc2ccccc2)N(C)C(=O)[C@H](Cc2ccc(O)cc2)NC(=O)[C@H](Cc2c[nH]c3ccccc23)NC(=O)[C@H](C)NC(=O)CN(CCCOC)C(=O)CSC[C@H](C(=O)O)NC(=O)[C@H](Cc2ccccc2)N(C)C(=O)[C@H](C)N(C)C1=O [Myostatin_99_v223] ({CH2CO}-[Gly(N-(CH2)3OMe)]AWY[NMeF]I[Sar][4Pal][Phe(4-COOH)]R[NMeF][X1][NMeA][NMeF][dC]-OH; thioether N-15) | 94% | 99% | 0% | 28% |  |  |  |  |  |
| CC[C@H](C)[C@@H]1NC(=O)[C@H](Cc2ccccc2)N(C)C(=O)[C@H](Cc2ccc(N)nc2)NC(=O)[C@H](Cc2c[nH]c3ccccc23)NC(=O)[C@H](C)NC(=O)CN(CCCC(=O)O)C(=O)CSC[C@H](C(N)=O)NC(=O)[C@H](Cc2ccccc2)N(C)C(=O)[C@H](C)N(C)C(=O)[C@H](CC(C)C)NC(=O)[C@H](Cc2ccccc2)N(C)C(=O)[C@H](CCCNC(=N)N)NC(=O)[C@H](Cc2ccc(C(=O)O)cc2)NC(=O)[C@H](Cc2ccncc2)NC(=O)CN(C)C1=O [Myostatin_99_Variant_25] ({CH2CO}-[Gly(N(CH2)3COOH)]AW[3Pal(6-NH2)][NMeF]I[Sar][4Pal][Phe(4-COOH)]R[NMeF]L[NMeA][NMeF][dC]-NH2; thioether N-15) | 20% | 50% | 0% | 0% |  |  |  |  |  |
| CC[C@H](C)[C@@H]1NC(=O)[C@H](Cc2ccccc2)N(C)C(=O)[C@H](Cc2ccc(O)cc2)NC(=O)[C@H](Cc2c[nH]c3ncccc23)NC(=O)[C@H](C)NC(=O)[C@H](C)NC(=O)CSC[C@H](C(=O)NCC(=O)N[C@H](CCC(=O)O)C(=O)NCC(=O)N[C@H](CCCCN)C(=O)O)NC(=O)[C@H](Cc2ccccc2)N(C)C(=O)[C@H](C)N(C)C(=O)[C@H](CC(C)C)NC(=O)[C@H](Cc2ccccc2)N(C)C(=O)[C@H](CCCNC(=N)N)NC(=O)[C@H](Cc2ccc(C(=O)O)cc2)NC(=O)[C@H](Cc2ccccc2)NC(=O)CN(C)C1=O [Myostatin_99_v28] ({CH2CO}-AA[Trp(7-aza)]Y[NMeF]I[Sar]F[Phe(4-COOH)]R[NMeF]L[NMeA][NMeF][dC]G[dE]G[dK]-OH; thioether N-15) | 69% | 92% | 0% | 20% |  |  |  |  |  |
| CC[C@H](C)[C@@H]1NC(=O)[C@H](Cc2ccccc2)N(C)C(=O)[C@H](Cc2ccc(O)cc2)NC(=O)[C@H](Cc2ccc(-c3ccccc3)cc2)NC(=O)[C@H](C)NC(=O)CN(CCCC(=O)O)C(=O)CSC[C@H](C(=O)O)NC(=O)[C@H](Cc2ccccc2)N(C)C(=O)[C@H](C)N(C)C(=O)[C@H](CC(C)C)NC(=O)[C@H](Cc2ccccc2)N(C)C(=O)[C@H](CCCNC(=N)N)NC(=O)[C@H](Cc2ccc(C(N)=O)cc2)NC(=O)[C@H](Cc2ccc(C(=O)O)cc2)NC(=O)[C@H](C)N(C)C1=O [Myostatin_99_v102] ({CH2CO}-[Gly(N(CH2)3COOH)]A[Bip]Y[NMeF]I[NMeA][Phe(4-COOH)][Phe(4-CONH2)]R[NMeF]L[NMeA][NMeF][dC]-OH; thioether N-15) | 60% | 81% | 0% | 0% |  |  |  |  |  |
| CCCCCCC[C@@H]1NC(=O)[C@H](Cc2ccccc2)N(C)C(=O)[C@H](CCCNC(=N)N)NC(=O)[C@H](Cc2ccc(C(=O)O)cc2)NC(=O)[C@H](Cc2cccc(OCC(=O)O)c2)NC(=O)[C@H](C)N(C)C(=O)[C@H]([C@@H](C)CC)NC(=O)[C@H](Cc2ccccc2)N(C)C(=O)[C@H](Cc2ccc(O)cc2)NC(=O)[C@H](Cc2c[nH]c3ccccc23)NC(=O)[C@H](C)NC(=O)[C@H](C)N(C)C(=O)[C@H](C)N(C)C(=O)CNC(=O)[C@H](Cc2ccccc2)N(C)C(=O)[C@H](C)N(C)C1=O [Myostatin_99_v455] (cyclo(AWY[NMeF]I[NMeA][Phe(3-OCH2COOH)][Phe(4-COOH)]R[NMeF][X1][NMeA][NMeF]G[NMeA][NMeA])) |  |  |  |  | 100% | 99% | 1% | 0% |  |
| CCCCCCC[C@@H]1NC(=O)[C@H](Cc2ccccc2)N(C)C(=O)[C@H](CCCNC(=N)N)NC(=O)[C@H](Cc2ccc(C(=O)O)cc2)NC(=O)[C@H](Cc2cccc(OCC(=O)O)c2)NC(=O)CN(C)C(=O)[C@H]([C@@H](C)CC)NC(=O)[C@H](Cc2ccccc2)N(C)C(=O)[C@H](Cc2ccc(O)cc2)NC(=O)[C@H](Cc2cn(Cc3ccccc3)c3ccccc23)NC(=O)[C@H](C)NC(=O)[C@H](C)NC(=O)CSC[C@H](C(=O)N2CCN(CC(=O)O)CC2)NC(=O)[C@H](Cc2ccccc2)N(C)C(=O)[C@H](C)N(C)C1=O [Myostatin_99_v312] ({CH2CO}-AA[X10]Y[NMeF]I[Sar][Phe(3-OCH2COOH)][Phe(4-COOH)]R[NMeF][X1][NMeA][NMeF][dC]-{Piperazinyl(4-CH2COOH)}; thioether N-15) |  |  |  |  | 100% | 98% | 0% | 6% |  |
| CCCCCCC[C@@H]1NC(=O)[C@H](Cc2ccccc2)N(C)C(=O)[C@H](CCCNC(=N)N)NC(=O)[C@H](Cc2ccc(C(=O)O)cc2)NC(=O)[C@H](Cc2cccc(OCC(=O)O)c2)NC(=O)[C@H](C)N(C)C(=O)[C@H]([C@@H](C)CC)NC(=O)[C@H](Cc2ccccc2)N(C)C(=O)[C@H](Cc2ccc(O)cc2)NC(=O)[C@H](Cc2c[nH]c3ccccc23)NC(=O)[C@H](C)NC(=O)CN(CCCC(=O)O)C(=O)CSC[C@H](C(=O)N2CCC(C(N)=O)CC2)NC(=O)[C@H](Cc2ccccc2)N(C)C(=O)[C@H](C)N(C)C1=O [Myostatin_99_v433] ({CH2CO}-[Gly(N(CH2)3COOH)]AWY[NMeF]I[NMeA][Phe(3-OCH2COOH)][Phe(4-COOH)]R[NMeF][X1][NMeA][NMeF][dC][Inp]-NH2; thioether N-15) |  |  |  |  | 100% | 100% | 0% | 0% |  |
| CC[C@H](C)[C@@H]1NC(=O)[C@H](Cc2ccccc2)N(C)C(=O)[C@H](Cc2ccc(O)cc2)NC(=O)[C@H](Cc2c[nH]c3ncccc23)NC(=O)[C@H](C)NC(=O)CN(CCCC(=O)O)C(=O)CSC[C@H](C(N)=O)NC(=O)[C@H](Cc2ccccc2)N(C)C(=O)[C@H](C)N(C)C(=O)[C@H](CC(C)C)NC(=O)[C@H](Cc2ccccc2)N(C)C(=O)[C@H](CCCNC(=N)N)NC(=O)[C@H](Cc2ccc(C(=O)O)cc2)NC(=O)[C@H](Cc2ccccc2)NC(=O)CN(C)C1=O [Myostatin_99_Variant_20] ({CH2CO}-[Gly(N(CH2)3COOH)]A[Trp(7-aza)]Y[NMeF]I[Sar]F[Phe(4-COOH)]R[NMeF]L[NMeA][NMeF][dC]-NH2; thioether N-15) | 62% | 89% | 0% | 0% |  |  |  |  |  |
